Laboratory results taken from patent US20240150396A1 (The Texas A&M University System, priority 2021, published 2024).
Several values for one entry are separate records, joined by “and”; a condition that tells them apart may be missing. Equal entries are not always repeated. Entries after “also recorded” stand apart in the source; their conditions may differ. Where two headings read alike, the source gives them in different places.

Tests used:
[1] = tested on: T. b. brucei bloodstream forms; experiment: Growth of axenic cultures of T. b. brucei bloodstream forms (BSFs)
[2] = tested on: T. cruzi (Ca-I/72) in C2C12 murine cardiomyoblasts; experiment: T. cruzi-infected murine cardiomyoblasts (C2C12); type: cell-based, Trypanosoma cruzi; settings: for EC50: read-out: EC50 T. cruzi-infected cardiomyoblasts
Outline: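 Infected-host-cell imaging assay: inhibitor, 3-fold dilutions topping at 10 μM, was added to C2C12 murine cardiomyoblasts infected with 10^3 or 10^4 Ca-I/72 parasites for 2 days at 37° C. DAPI-stained fixed wells were imaged to count parasites and host cells separately, yielding antiparasitic EC50 and cytotoxic CC50.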

human cathepsin S = human cathepsin S (Homo sapiens (Human), UniProt P25774); experiment: Human cathepsin S inhibition; type: biochemical; settings: pH 5.5, 25° C., 10% DMSO
Description: Cruzain inhibitors were added at seven concentrations and one fixed concentration of Cbz-Phe-Arg-AMC, and time courses of AMC formation were analyzed as with cruzain.

[3] = Host cell cytotoxicity in the T. cruzi infection model; type: cell-based, mouse; settings: mouse
Outline: (§1)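 C2C12 murine cardiomyoblasts infected with T. cruzi were incubated with compound 48 h at 37 °C, fixed in 2% PFA and stained with 5 μg/ml DAPI. Automated microscopy imaging quantified host cells and parasites separately; host cytotoxicity derived as CC50.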

[4] = Solubility of cruzain inhibitors in 10% DMSO, light scattering; type: physicochemical
Description: Synthetic PVHIs such as 5-16 and 22-24 at final concentrations of 1-200 μM were added to 0.25 mL solutions of 10% DMSO (v/v) in clear 96-well Greiner plates, and absorbance at 620 nm was measured using a BioTek M2 Synergy plate reader at t=0 and 120 min to evaluate increased light scattering and precipitated inhibitor.

[5] = tested on: T. cruzi epimastigotes (strain Y); experiment: Growth of axenic cultures of T. cruzi epimastigotes
Description: Selected cruzain inhibitors in axenic cell cultures of Trypanosoma brucei brucei (procyclic trypomastigotes; ATCC PRA-381) and Trypanosoma cruzi (epimastigote forms; strain Y, ATCC 50832GFP) were tested. T. b. brucei is grown in SDM-79 medium, and T. cruzi is grown in ATCC medium (1029 LIT medium). Both media included fetal calf serum (10%) and penicillin/streptomycin (50 U/mL). […] T. brucei and T. cruzi (5 mL in flask cultures) at 26° C. were seeded at ˜3×10^6 cells, and diluted daily maintaining a mid-log growth phase for up to 100 hrs. Cell counts were scored using a Z2 Coulter Counter. After each cell dilution, fresh compound or an equal volume of DMSO (control samples), was supplemented into the cultures. […] Cruzain inhibitors where the highest concentration reflects the upper limit of solubilities of the inhibitors in 1% (v/v) DMSO solutions were evaluated. These inhibitors are likely to bind to proteins in fetal calf serum, and for these reasons, fresh inhibitors were added each time cells were re-fed.
Selected cruzain inhibitors were evaluated in axenic cell cultures of T. b. brucei and T. cruzi. Procyclic trypomastigotes of T. b. brucei (ATCC PRA-381) were grown in the SDM-79 medium at 26° C., and bloodstream forms (ATCC PRA-383) were grown at 37° C. in the HMI-9 medium at 5% C02. T. cruzi (epimastigote forms, strain Y, ATCC 50832GFP) was grown in the ATCC medium (1029 LIT medium). Both forms of T. b. brucei and T. cruzi were grown in media containing 10% fetal bovine serum (FBS) and penicillin/streptomycin (50 U mL^−1). […] Control samples contained equal amounts of DMSO. T. b. brucei and T. cruzi (5 mL in flask cultures) were seeded at ˜3×10^6 cells and diluted daily, maintaining a mid-log growth phase for up to 120 h. […] After each cell dilution, fresh compound or an equal volume of DMSO (control samples) was supplemented into the cultures, while maintaining a constant concentration of each inhibitor. Cell counts were scored using a Z2 Coulter Counter.

[6] = tested on: T. b. brucei procyclic forms; experiment: Growth of axenic cultures of T. b. brucei procyclic forms (PCFs); type: cell-based, Trypanosoma brucei brucei; settings: axenic culture; read-out: EC50 T. b. brucei PCF
[7] = tested on: C2C12 mouse cardiomyoblast cell line; experiment: Host cell cytotoxicity in the T. cruzi infection model; type: cell-based
Outline: as §1

[8] = tested on: SARS-CoV-2 in Vero E6 cells; experiment: Anti-CoV-2 activity in Vero E6 cells; type: cell-based
[9] = mice, intravenous administration, data not shown
[10] = Detection of aldehyde content using phenylhydrazine; type: physicochemical; settings: aqueous buffer, 1 mM phenylhydrazine, 2 hours
Description: Detection of Aldehyde Content Using Phenylhydrazine. In a 96-well clear microplate, compounds 52 and 36 in DMSO solutions, or pure DMSO as a control, were diluted into the above NMR buffer without addition of DTT to make 250 μL-samples, each containing 0.2 mM of compounds and 10% DMSO (v/v). Upon addition of 1M phenylhydrazine (0.25 μL), the formation of phenylhydrazone in these wells were continuously monitored for 2 hours by measuring UV absorbance at the maximal wavelength of 282 nm.

[11] = tested on: trypanosomes (T. b. brucei, T. cruzi); experiment: Anti-trypanosomal activity, culture not stated; type: cell-based; settings: culture (T. b. brucei PCF/BSF or T. cruzi-infected cardiomyoblasts) not stated
SARS-CoV-2 3CL protease = SARS-CoV-2 3CL protease (Severe acute respiratory syndrome coronavirus 2 (2019-nCoV) (SARS-CoV-2), UniProt P0DTD1); experiment: biochemical; type: biochemical; settings: pH 7.5; for Ki: read-out: Ki* 3CLpro
[12] = Trypanosoma cruzi, C2C12, C2C12 murine cardiomyoblasts
[13] = read-out: T. cruzi axenic culture EC50, epimastigotes
[14] = read-out: EC50 T. b. brucei BSF, axenic culture

Chain of human cathepsin S (P25774 115-331): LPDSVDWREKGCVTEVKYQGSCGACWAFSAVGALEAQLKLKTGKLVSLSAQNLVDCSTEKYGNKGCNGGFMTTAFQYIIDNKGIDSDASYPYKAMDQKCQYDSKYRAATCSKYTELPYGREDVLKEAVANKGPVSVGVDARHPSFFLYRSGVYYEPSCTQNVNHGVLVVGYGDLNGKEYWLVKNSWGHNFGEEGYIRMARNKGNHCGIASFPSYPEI

Compound | EC50 ([2]; C2C12 murine cardiomyoblasts) | EC50 [2, 12] [µM] | Ki (human cathepsin S) [µM] | EC50 [5, 13] | EC50 [1, 14] [µM] | EC50 [6] | CC50 [7] [µM] | EC50 [8] | Ki (SARS-CoV-2 3CL protease) [µM] | other results
C[n+]1ccccc1/C=C/[C@H](Cc1ccccc1)NC(=O)[C@H](Cc1ccccc1)NC(=O)OCc1ccccc1.[I-] [Compound 12, 2-((S,E)-3-((S)-2-(((Benzyloxy)carbonyl)amino)-3-phenylpropanamido)-4-phenylbut-1-en-1-yl)-1-methylpyridin-1-ium Iodide] | 9.9 ± 0.5 µM | 5 to 8 | 0.87 ± 0.07 | – | – | – | – | – | – | EC50 ([1]; Trypanosoma brucei, read-out: EC50 T. b. brucei BSF, axenic culture): 6.6 ± 0.6 µM; Selectivity Index CC50/EC50 ([2]; CC50 human dermal fibroblasts / EC50 infected cardiomyoblasts): >10; CC50 at 48 h [3]: > 10 µM; solubility ([4]; in 10% DMSO): ≥ 50 µM
O=C(N[C@@H](Cc1ccccc1)C(=O)N[C@H](/C=C/c1ccccn1)Cc1ccccc1)OCc1ccccc1 [Compound 11, Benzyl ((S)-1-Oxo-3-phenyl-1-(((S,E)-1-phenyl-4-(pyridin-2-yl)-but-3-en-2-yl)amino)propan-2-yl)carbamate] | 5 to 10 µM | 5 to 8 | 1.8 ± 0.3 | – | – | – | – | – | – | EC50 ([5]; Trypanosoma cruzi, read-out: T. cruzi axenic culture EC50, epimastigotes): > 20 µM; T. cruzi axenic culture EC50 ([5]; epimastigotes): poorly effective; CC50 at 48 h ([3]; host cardiomyoblasts, read-out: C2C12 Cytotoxicity CC50): > 10 µM
C[n+]1ccccc1/C=C/[C@H](CCc1ccccc1)NC(=O)[C@H](Cc1ccccc1)NC(=O)OCc1ccccc1 [Compound 15, 2-((S,E)-3-((S)-2-(((Benzyloxy)carbonyl)amino)-3-phenylpropanamido)-5-phenylpent-1-en-1-yl)-1-methylpyridin-1-ium] | 5.4 ± 0.9 µM | – | 0.32 ± 0.04 | 2 to 20 µM and 2.1 µM | 2.8 ± 0.1 | 5 to 15 µM and 5.9 µM | > 10 | – | – | solubility [4]: ≥ 50 µM
CN1CCN(C(=O)NC(Cc2ccccc2)C(=O)NC2Cc3ccccc3OC2O)CC1 (stereo not shown) [Compound 36] | 29 µM and ~30 µM | – | – | 0.54 µM | 0.6 | 4 µM | – | 7.5 µM | > 10 | half-life [9]: short half-life; free aldehyde by phenylhydrazine treatment [10]: no free aldehyde could be detected; also recorded: remained intact after 2 hours; EC50 [11]: 0.5 to 29 µM
O=C(N[C@@H](Cc1ccccc1)C(=O)N[C@H]1Cc2ccccc2OC1O)OCc1ccccc1 (stereo partly shown) [Compound 30] | 5 to 8 µM and 3 µM and 3 to 5.7 µM | – | – | 2 to 20 µM | 6.8 ± 1.1 | 17 µM | > 10 | 5 µM and 2.5 to 7.5 µM | > 10 | Ki* 3CLpro (SARS-CoV-2 3CL protease): not an inhibitor of 3CL protease
